How the values were obtained:
Type in all cases: cell-based, human
[1] = tested on: HDAC2; experiment: Deacetylase activity of immunoprecipitated HDAC2 from H292 cells; conditions: NAC 2 mM 2 h, then CSE 2.5% 0.5 h
Description: (§1) A) H292 cells cultured on 8-well chamber slides were treated with 2.5% CSE for 0.5 h or 50 μM Acrolein for 1 h, washed and fixed with 4% PFA. Slides were incubated with HDAC2 and α-tubulin antibodies overnight at […]. Slides were mounted with antifade mounting solution and images analysed by an Olympus inverted microscope. B) H292 cells were transfected with plasmid vector (Ctrl V) or flag-tagged WT HDAC2 (1-488) for 24 h with lipofectamine 2000. Cells were treated with 2.5% CSE for 0.5 h and flag proteins immunoprecipitated using M2 anti-flag antibodies overnight at 4° C. HDAC1 and C) p53 interaction were determined by western blot. D) H292 cells were transfected with plasmid vector (Ctrl V), flag-tagged WT HDAC2 (1-488) or S^394/^411/^422/^424A and 1-400 amino acid HDAC2 mutants for 24 h with lipofectamine 2000. […] Levels of HDAC2 interaction with HDAC1 were determined by western blotting using specific antibodies. […] Levels of phospho-serine and HDAC2 interaction with SAP30, RbAp46/48, MBD3 and p65 were determined by western blotting using specific antibodies respectively. […] Levels of HDAC1 and p65 binding to immunoprecipitated flag-tagged HDAC2 was determined by western blotting. […] Deacetylase activity of immunoprecipitated HDAC2 was determined using a specific HDAC2 deacetylase activity kit. Data expressed as mean±SEM (n=3). *** P<0.001 significant compared to control treatments.

[2] = tested on: HDAC2; experiment: Serine phosphorylation of immunoprecipitated HDAC2 in H292 cells
Description: FIG. 6: CSE induced CK2-dependent HDAC2 phosphorylation in bronchial epithelial and small airway epithelial cells. [A (i)] H292 cells were treated with CSE (2.5%) for 0.5, 1, 2 and 4 h. Immunoprecipitated HDAC2 was analyzed for phosphorylation of serine residues using specific phospho-serine antibodies by SDS polyacrylamide gel. CSE induced significant cyclical phosphorylation of HDAC2 on serine residues at 0.5, 1 and 4 h. [A (ii)] Relative density of phosphor-serine expression normalized to immunoprecipitated HDAC2. [B (i)] […] Immunoprecipitated HDAC2 from whole cell lysates was probed for phosphorylation of serine residues, CSE induced a dose-dependent increase in HDAC2 serine phosphorylation. [B (ii)] Relative density of phospho-serine expression normalized to immunoprecipitated HDAC2. (C) H292 cells were treated with or without specific CK2 inhibitor, TBB. for 1 h, cells were washed with sterile 1×PBS and then treated with freshly prepared CSE (2.5%) for 0.5 h, Immunoprecipitated HDAC2 was assayed for phosphorylation on serine residues. […] (D) Relative density of phosphor-serine expression normalized to immunoprecipitated HDAC2.
FIG. 14: Loss of Serine Sites S^394, S^422, S^424 Abrogates Cigarette Smoke Extract (CSE)-Induced Phosphatase-Independent HDAC2 Phosphorylation. A) Bronchial epithelial H292 cells were transfected with plasmid vector or flag-tagged WT HDAC2 (1-488) for 24 h using lipofectamine 2000 and then treated with or without 2.5% CSE for 0.5 h or B) 50 μM. acrolein for 1 h. Flag-tagged proteins were immunoprecipitated overnight and serine phosphorylation detected by western blots using phospho-serine antibodies. C) Flag-tagged WT HDAC2 was immunoprecipitated from whole cell lysates of H292 cells treated with 2.5% CSE for 0.5 h. Immunoprecipates were then washed and treated with 400 U of λ-phosphatase or buffer alone for 1 h at 30° C. Phosphorylation of serine sites were detected by western blots using anti-serine antibodies. D) H292 cells were transfected with plasmid vector, flag-tagged WT HDAC2 (1-488) or S394A, S394/411/422/424A and 1-400 aa HDAC2 mutants for 24 h with lipofectamine 2000. Cells were then treated with 2.5% CSE for 0.5 h. Serine phosphorylation of immunoprecipitated flag proteins was determined by western blot. E) Phosphatase activity was determined using non-radioactive assay system (Promega). H292 cells were treated with or without 2.5% CSE for 0.5, 2 and 6 h with serine/threonine […] (okadaic acid) used as a positive control. 5 μg protein was incubated with PP2A specific-peptide substrate RRA(pT)VA and reaction buffer for 15 minutes in a 96-well plate. Molybdate dye/additive mixture was added to stop the reaction and color allowed to develop for 15 minutes. Optical density of samples was determined using a microplate reader with a 630 nm filter.
FIG. 18: Protein Kinase CK2 Inhibitors Blocks CSE-Induced HDAC2 Phosphorylation. A) Bronchial epithelial H292 cells transfected with a flag-tagged WT HDAC2 plasmid were treated with 2.5% CSE for 0.5 h. […] B) Relative density of phospho-serine expression normalized to immunoprecipitated HDAC2. Data expressed as mean±SEM (n=3). *** P<0.001, ### P<0.001 significant compared to control treatments.
Cell lysate controls were used.

[3] = tested on: HDAC2; experiment: Co-immunoprecipitation of flag-tagged HDAC2 with binding partners in H292 cells; conditions: H292, flag-tagged WT HDAC2
Description: FIG. 16: HDAC2 serine phosphorylation is associated with increased interaction with catalytic subunits of protein kinase CK2 in response to CSE. A) Bronchial epithelial H292 cells transfected with either a control vector (control V) or flag-tagged WT HDAC2 were treated with 2.5% CSE for 0.5 h. […] C) Bronchial epithelial H292 cells transfected with flag-tagged WT HDAC2 were treated with either 2.5% CSE for 0.5 h, 25 or 50 μM Acrolein for 1 h and 200 μM H202 for 0.5 and 2 h respectively.
A) H292 cells cultured on 8-well chamber slides were treated with 2.5% CSE for 0.5 h or 50 μM Acrolein for 1 h, washed and fixed with 4% PFA. Slides were incubated with HDAC2 and α-tubulin antibodies overnight at […]. Slides were mounted with antifade mounting solution and images analysed by an Olympus inverted microscope. B) H292 cells were transfected with plasmid vector (Ctrl V) or flag-tagged WT HDAC2 (1-488) for 24 h with lipofectamine 2000. Cells were treated with 2.5% CSE for 0.5 h and flag proteins immunoprecipitated using M2 anti-flag antibodies overnight at 4° C. HDAC1 and C) p53 interaction were determined by western blot. D) H292 cells were transfected with plasmid vector (Ctrl V), flag-tagged WT HDAC2 (1-488) or S^394/^411/^422/^424A and 1-400 amino acid HDAC2 mutants for 24 h with lipofectamine 2000. Cells were then exposed to 2.5% CSE for 0.5 h. Levels of HDAC2 interaction with HDAC1 were determined by western blotting using specific antibodies. E) H292 cells were transfected with flag-tagged WT HDAC2 (1-488) for 24 h with lipofectamine 2000. […] Levels of phospho-serine and HDAC2 interaction with SAP30, RbAp46/48, MBD3 and p65 were determined by western blotting using specific antibodies respectively. […] Levels of HDAC1 and p65 binding to immunoprecipitated flag-tagged HDAC2 was determined by western blotting. […] Deacetylase activity of immunoprecipitated HDAC2 was determined using a specific HDAC2 deacetylase activity kit. Data expressed as mean±SEM (n=3). *** P<0.001 significant compared to control treatments.

[4] = tested on: HDAC2; experiment: HDAC2 cellular localization in H292 cells (immunofluorescence); conditions: acrolein 50 μM, 1 h
Description: as §1

Structure (SMILES) | CSE-induced decrease in HDAC2 deacetylase activity [1] | CSE-induced HDAC2 phosphorylation ([2]; H292, flag-tagged WT HDAC2, NAC 2 mM 2 h, then CSE 2.5% 0.5 h) | HDAC2 interaction with co-repressor proteins (SAP30, MBD3) and p65 ([3]; NAC 2 mM 2 h, then CSE 2.5% 0.5 h) | HDAC2 cellular localization [4] | serine phosphorylation of flag-tagged full length HDAC2 ([2]; H292, acrolein 50 μM, 1 h) | HDAC2 CK2α′ binding ([3]; acrolein 25 and 50 μM, 1 h)
CC(=O)N[C@@H](CS)C(=O)O [NAC, N-acetyl cysteine] | rescued | Inhibiting CSE-induced HDAC 2 phosphorylation | blocked HDAC2 interaction with co-repressor proteins | – | – | –
C=CC=O [acrolein] | – | – | – | remained localized to the nucleus | significantly phosphorylated on serine residues | increased HDAC2 CK2α′ binding

From patent US20120022129A1, “Targeting of Histone Deacetylase 2, Protein Kinase CK2, and Nuclear Factor NRF2 For Treatment of Inflammatory Diseases” (priority 2008, published 2012)
